Assay [1] concerns the target T1, human adenosine A2a receptor (Homo sapiens, UniProt P29274).
T1 construct: expressed in transfected cells; host or cells: CHO-K1
Kind of assay: Adenosine A2a Receptor Functional Assay (A2AGAL2). The note with it: CHO-K1 cells, cAMP inducible beta-galactosidase reporter, 15 nM NECA agonist challenge. Type of assay: cell-based. As for the experimental part: Adenosine A2a Receptor Functional Assay (A2AGAL2)
To initiate the functional assay, cryopreserved CHO-K1 cells overexpressing the human adenosine A2a receptor and containing a cAMP inducible beta-galactosidase reporter gene were thawed, centrifuged, DMSO containing media removed, and then seeded with fresh culture media into clear 384-well tissue culture treated plates (BD #353961) at a concentration of 10K cells/well. Prior to assay, these plates were cultured for two days at 37° C., 5% CO2, 90% Rh. On the day of the functional assay, culture media was removed and replaced with 45 uL assay medium (Hams/F-12 Modified (Mediatech # 10-080CV) supplemented w/0.1% BSA). Test compounds were diluted and 11 point curves created at a 1000× concentration in 100% DMSO. Immediately after addition of assay media to the cell plates, 50 nL of the appropriate test compound antagonist or agonist control curves were added to cell plates using a Cartesian Hummingbird. Compound curves were allowed to incubate at room temperature on cell plates for approximately 15 minutes before addition of a 15 nM NECA (Sigma E2387) agonist challenge (5 uL volume). A control curve of NECA, a DMSO/Media control, and a single dose of Forskolin (Sigma F3917) were also included on each plate. After additions, cell plates were allowed to incubate at 37° C., 5% CO2, 90% Rh for 5.5-6 hours. After incubation, media was removed, and cell plates were washed 1×50 uL with DPBS w/o Ca & Mg (Mediatech 21-031-CV). Into dry wells, 20 uL of 1× Reporter Lysis Buffer (Promega E3971 (diluted in dH2O from 5× stock)) was added to each well and plates frozen at −20° C. overnight. For β-galactosidase enzyme calorimetric assay, plates were thawed out at room temperature and 20 μL 2× assay buffer (Promega) was added to each well. Color was allowed to develop at 37° C., 5% CO2, 90% Rh for 1-1.5 h or until reasonable signal appeared. The calorimetric reaction was stopped with the addition of 60 μL/well 1M sodium carbonate. Plates were counted at 405 nm on a SpectraMax Microplate Reader (Molecular Devices). Data was analyzed in Microsoft Excel and IC/EC50 curves were fit using a standardized macro.

In assay [2] the target is T2, human A2a adenosine receptor (Homo sapiens, UniProt P29274).
T2 construct: purchased PerkinElmer RB-HA2a; host or cells: HEK293
Put plainly: Ligand Binding Assay for Adenosine A2a Receptor (A2A-B). The conditions noted are these: HEK293 plasma membrane, radioligand [3H]CGS21680. As for the experimental part:
Ligand Binding Assay for Adenosine A2a Receptor
Ligand binding assay of adenosine A2a receptor was performed using plasma membrane of HEK293 cells containing human A2a adenosine receptor (PerkinElmer, RB-HA2a) and radioligand [^3H]CGS21680 (PerkinElmer, NET 1021). Assay was set up in 96-well polypropylene plate in total volume of 200 μL by sequentially adding 20 μL 1:20 diluted membrane, 130 μL assay buffer (50 mM Tris.HCl, pH7.4 10 mM MgCl2, 1 mM EDTA) containing [^3H] CGS21680, 50 μL diluted compound (4×) or vehicle control in assay buffer. Nonspecific binding was determined by […] NECA. Reaction was carried out at room temperature for 2 hours before filtering through 96-well GF/C filter plate pre-soaked in 50 mM Tris.HCl, pH7.4 containing 0.3% polyethylenimine. Plates were then washed 5 times with cold 50 mM Tris.HCl, pH7.4, dried and sealed at the bottom. Microscintillation fluid 30 μL was added to each well and the top sealed. Plates were counted on Packard Topcount for [^3H]. Data was analyzed in Microsoft Excel and GraphPad Prism programs. (Varani, K.; Gessi, S.; Dalpiaz, A.; Borea, P. A. British Journal of Pharmacology, 1996, 117, 1693)

Assay [3] has as its target T3, human adenosine A1 receptor (Homo sapiens, UniProt P30542).
T3 construct: expressed in transfected cells; host or cells: CHO-K1
T3 sequence (P30542 1-326): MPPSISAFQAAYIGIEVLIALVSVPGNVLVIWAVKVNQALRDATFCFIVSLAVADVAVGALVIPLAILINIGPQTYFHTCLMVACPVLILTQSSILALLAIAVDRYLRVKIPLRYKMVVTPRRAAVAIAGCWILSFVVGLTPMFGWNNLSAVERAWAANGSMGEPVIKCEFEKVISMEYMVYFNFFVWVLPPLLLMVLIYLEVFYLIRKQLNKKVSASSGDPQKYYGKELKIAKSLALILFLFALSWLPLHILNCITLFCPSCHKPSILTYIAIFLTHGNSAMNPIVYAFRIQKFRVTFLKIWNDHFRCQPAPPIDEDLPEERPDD
Kind of assay: Adenosine A1 Receptor Functional Assay (A1GAL2). Type of assay: cell-based. The conditions noted are these: CHO-K1 cells, cAMP inducible beta-galactosidase reporter, 4 nM r-PIA/1 uM Forskolin challenge. As for the experimental part:
Adenosine A1 Receptor Functional Assay (A1GAL2)
To initiate the functional assay, cryopreserved CHO-K1 cells overexpressing the human adenosine A1 receptor and containing a cAMP inducible beta-galactosidase reporter gene were thawed, centrifuged, DMSO containing media removed, and then seeded with fresh culture media into clear 384-well tissue culture treated plates (BD #353961) at a concentration of 10K cells/well. Prior to assay, these plates were cultured for two days at 37° C., 5% CO2, 90% Rh. On the day of the functional assay, culture media was removed and replaced with 45 uL assay medium (Hams/F-12 Modified (Mediatech # 10-080CV) supplemented w/0.1% BSA). Test compounds were diluted and 11 point curves created at a 1000× concentration in 100% DMSO. Immediately after addition of assay media to the cell plates, […] of the appropriate test compound antagonist or agonist control curves were added to cell plates using a Cartesian Hummingbird. Compound curves were allowed to incubate at room temperature on cell plates for approximately 15 minutes before addition of a 4 nM r-PIA (Sigma P4532)/1 uM Forskolin (Sigma F3917) agonist challenge (5 uL volume). A control curve of r-PIA in 1 uM Forskolin, a DMSO/Media control, and a single dose of Forskolin were also included on each plate. After additions, cell plates were allowed to incubate at 37° C., 5% CO2, 90% Rh for 5.5-6 hours. After incubation, media was removed, and cell plates were washed 1×50 uL with DPBS w/o Ca & Mg (Mediatech 21-031-CV).
Into dry wells, 20 uL of 1× Reporter Lysis Buffer (Promega E3971 (diluted in dH2O from 5× stock)) was added to each well and plates frozen at −20° C. overnight. For β-galactosidase enzyme calorimetric assay, plates were thawed out at room temperature and 20 μL 2× assay buffer (Promega) was added to each well. Color was allowed to develop at 37° C., 5% CO2, 90% Rh for 1-1.5 h or until reasonable signal appeared. The calorimetric reaction was stopped with the addition of 60 μL/well 1M sodium carbonate. Plates were counted at 405 nm on a SpectraMax Microplate Reader (Molecular Devices). Data was analyzed in Microsoft Excel and IC/EC50 curves were fit using a standardized macro.

Molecules are shown by their SMILES.

T1 sequence (P29274 whole entry): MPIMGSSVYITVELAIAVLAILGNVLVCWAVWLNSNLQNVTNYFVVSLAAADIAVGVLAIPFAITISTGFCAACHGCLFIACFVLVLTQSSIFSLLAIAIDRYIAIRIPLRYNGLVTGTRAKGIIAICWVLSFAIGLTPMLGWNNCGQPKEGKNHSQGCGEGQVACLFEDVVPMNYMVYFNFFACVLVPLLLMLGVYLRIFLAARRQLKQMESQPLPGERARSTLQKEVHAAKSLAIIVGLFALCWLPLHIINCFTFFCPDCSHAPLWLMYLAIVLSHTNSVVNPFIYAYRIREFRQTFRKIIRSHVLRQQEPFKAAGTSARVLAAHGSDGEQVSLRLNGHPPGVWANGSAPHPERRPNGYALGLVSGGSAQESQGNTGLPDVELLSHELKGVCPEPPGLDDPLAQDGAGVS
T2 sequence (P29274 whole entry): as above

In the case of `Nc1nc(-c2ccc(Br)o2)nc2sc(CN3CCOCC3)cc12` [Example 7, 2-(5-Bromo-furan-2-yl)-6-morpholin-4-ylmethyl-thieno[2,3-d]pyrimidin-4-ylamine], the Ki was 18.3 nM in assay [1], 202 nM in assay [2] and 698 nM in assay [3].
In turn, `Nc1nc(-c2cccs2)nc2sc(CN3CCOCC3)cc12` [Example 26, 6-Morpholin-4-ylmethyl-2-thiophen-2-yl-thieno[2,3-d]pyrimidin-4-ylamine] returned a Ki in assay [2] of 207 nM.
For the compound `Nc1nc(-c2ccco2)nc2sc(CN3CCCC3)cc12` [Example 28, 2-Furan-2-yl-6-pyrrolidin-1-ylmethyl-thieno[2,3-d]pyrimidin-4-ylamine], the inhibitory constant (Ki) in assay [1] came out at 28.1 nM; in assay [2], 14.4 nM; in assay [3], 6430 nM.
For `Nc1nc(-c2ccco2)nc2sc(CNC3CC3)cc12` [Example 29, 6-Cyclopropylaminomethyl-2-furan-2-yl-thieno[2,3-d]pyrimidin-4-ylamine], the inhibition constant (Ki) in assay [1] is 36.2 nM; in assay [2] it was 93.3 nM; in assay [3], 1890 nM.
Taken in the same sequence, the figures for `Nc1nc(-c2cccs2)nc2sc(CN3CCCC3)cc12` [Example 30, 6-Pyrrolidin-1-ylmethyl-2-thiophen-2-yl-thieno[2,3-d]pyrimidin-4-ylamine] were 115 nM, 139 nM and more than 10000 nM.
The corresponding values for `CCN(CC)Cc1cc2c(N)nc(-c3ccco3)nc2s1` [Example 31, 6-Diethylaminomethyl-2-furan-2-yl-thieno[2,3-d]pyrimidin-4-ylamine] are 55.2 nM, 137 nM and 2130 nM.
For `Nc1nc(-c2ccco2)nc2sc(CNC3CCCCC3)cc12` [Example 32, 6-Cyclohexylaminomethyl-2-furan-2-yl-thieno[2,3-d]pyrimidin-4-ylamine], the Ki in assay [1] is 168 nM; in assay [2] it was 142 nM; in assay [3], 2480 nM.
As to `COCCNCc1cc2c(N)nc(-c3ccco3)nc2s1` [Example 33, 2-Furan-2-yl-6-[(2-methoxy-ethylamino)-methyl]-thieno[2,3-d]pyrimidin-4-ylamine], affinity in assay [2] was put at a Ki of 216 nM.
Turning to `Cc1ccc(-c2nc(N)c3cc(CN4CCCCC4)sc3n2)o1` [Example 34, 2-(5-Methyl-furan-2-yl)-6-piperidin-1-ylmethyl-thieno[2,3-d]pyrimidin-4-ylamine], the Ki was found to be 28.4 nM in assay [1], 18.7 nM in assay [2] and 606 nM in assay [3].
In assay [2], `Cc1ccc(-c2nc(N)c3cc(CN4CCN(C)CC4)sc3n2)o1` [Example 36, 2-(5-Methyl-furan-2-yl)-6-(4-methyl-piperazin-1-ylmethyl)-thieno[2,3-d]pyrimidin-4-ylamine] had an inhibition constant (Ki) of 371 nM.
`Cc1ccc(-c2nc(N)c3cc(CN4CCC(O)C4)sc3n2)o1` (centres unmarked) [Example 40, 1-[4-Amino-2-(5-methyl-furan-2-yl)-thieno[2,3-d]pyrimidin-6-ylmethyl]-pyrrolidin-3-ol]: the inhibition constant (Ki) in assay [2] was 375 nM.
Turning to `Nc1nc(-c2ccco2)nc2sc(CN3CCC(F)(F)C3)cc12` [Example 94, 6-(3,3-Difluoro-pyrrolidin-1-ylmethyl)-2-furan-2-yl-thieno[2,3-d]pyrimidin-4-ylamine], the values for the Ki in assay [1] and in assay [3] were 8.23 nM and 1240 nM, respectively.
As to `Nc1nc(-c2ccc(C(F)F)o2)nc2sc(CN3CCC(F)(F)CC3)cc12` [Example 99, 2-(5-Difluoromethyl-furan-2-yl)-6-(4,4-difluoro-piperidin-1-ylmethyl)-thieno[2,3-d]pyrimidin-4-ylamine], the inhibitory constant (Ki) in assay [1] was determined as 610 nM; in assay [3], 17800 nM.
Take `Nc1nc(-c2ccc(C(F)F)o2)nc2sc(CN3CCC(F)CC3)cc12` [Example 100, 2-(5-Difluoromethyl-furan-2-yl)-6-(4-fluoro-piperidin-1-ylmethyl)-thieno[2,3-d]pyrimidin-4-ylamine]: the Ki turned out to be 42.4 nM in assay [1] and 1670 nM in assay [3].
For the compound `Nc1nc(-c2ccc(C(F)F)o2)nc2sc(CN3CCCC(F)(F)C3)cc12` [Example 101, 2-(5-Difluoromethyl-furan-2-yl)-6-(3,3-difluoro-piperidin-1-ylmethyl)-thieno[2,3-d]pyrimidin-4-ylamine], the Ki in assay [1] stood at 42.5 nM; in assay [3], 2100 nM.
The corresponding values for `C[C@@H]1CCC[C@H](C)N1Cc1cc2c(N)nc(-c3ccc(C(F)F)o3)nc2s1` [Example 102, 2-(5-Difluoromethyl-furan-2-yl)-6-(2,6-dimethyl-piperidin-1-ylmethyl)-thieno[2,3-d]pyrimidin-4-ylamine] are 27.6 nM and 732 nM.
Taken in the same sequence, the figures for `CCN(CC)Cc1cc2c(N)nc(-c3ccc(C(F)F)o3)nc2s1` [Example 103, 6-Diethylaminomethyl-2-(5-difluoromethyl-furan-2-yl)-thieno[2,3-d]pyrimidin-4-ylamine] were 131 nM and 2090 nM.
The corresponding values for `Nc1nc(-c2ccnc(Cl)c2)nc2sc(CN3CCCCC3)cc12` [Example 104, 2-(2-Chloro-pyridin-4-yl)-6-piperidin-1-ylmethyl-thieno[2,3-d]pyrimidin-4-ylamine] are 691 nM and 3860 nM.
In the case of `Nc1nc(-c2cccc(O)c2)nc2sc(CN3CCOCC3)cc12` [Example 106, 3-(4-Amino-6-morpholin-4-ylmethyl-thieno[2,3-d]pyrimidin-2-yl)-phenol], the inhibition constant (Ki) worked out at 816 nM in assay [1] and 2440 nM in assay [3].
